Data as given in the NIST ThermoML archive (doi:10.1021/je4007844).

Settings: 101.33 kPa, Liquid; for mass density: Vibrating tube method; for viscosity: Concentric cylinders viscometry

CCCCCCn1cc[n+](C)c1.[Cl-] [1-hexyl-3-methylimidazolium chloride]
Settings | mass density [kg/m3] | viscosity [mPa·s]
303.15 K | 1035.1 | –
313.15 K | 1029.5 | –
323.15 K | 1023.9 | 1806
333.15 K | 1018.4 | 810.3
343.15 K | 1012.8 | 404.3
353.15 K | 1007.4 | 220.6
363.15 K | 1002.1 | 129.7
373.15 K | 997.1 | 81.34
